From patent US8623859B2, “Bradykinin B1 antagonists” (Evotec AG, priority 2008, dated 2014)

What follows are compounds tested against T1, human B1 (Homo sapiens, UniProt P46663) (assay: Calcium flux assay for Bradykinin B1 antagonist, CHO-K1 cell line expressing human B1). Details: CHO-K1 cells expressing human B1, agonist Lys-(Des-Arg)-Bradykinin, read-out: Potency (IC50 value against human B1).
T1 construct: host or cells: CHO-K1
T1 sequence (P46663 1-353): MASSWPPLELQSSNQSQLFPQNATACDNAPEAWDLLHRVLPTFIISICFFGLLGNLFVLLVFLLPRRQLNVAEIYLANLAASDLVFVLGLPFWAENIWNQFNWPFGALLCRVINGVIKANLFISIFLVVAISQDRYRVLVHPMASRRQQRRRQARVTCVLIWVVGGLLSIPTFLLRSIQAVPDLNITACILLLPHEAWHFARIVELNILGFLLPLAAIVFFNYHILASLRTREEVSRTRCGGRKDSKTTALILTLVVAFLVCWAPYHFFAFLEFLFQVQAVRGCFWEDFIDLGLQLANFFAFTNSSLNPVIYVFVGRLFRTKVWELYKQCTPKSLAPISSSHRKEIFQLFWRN
Assay type: cell-based
In short: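 Inhibition of B1 agonist-evoked intracellular Ca2+ rise was followed by continuous fluorescence at 538 nm, with integrated, background-normalized signals plotted versus log compound concentration. Test compounds (eight 10-fold dilutions, triplicate, 1% DMSO final) were added 30 min at 25° C beforehand to Fluo-4AM-loaded human B1 CHO-K1 cells in pH 7.4 assay buffer.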

`COc1cc(C)c(S(=O)(=O)N(C)Cc2nc(C(=O)N(C)Cc3ccc(CN4CCC(O)CC4)cc3)co2)c(C)c1` [Ex 166, N-{4-[(4-Hydroxypiperidin-1-yl)methyl]benzyl}-2-({[(4-methoxy-2,6-dimethylphenyl)sulfonyl](methyl)amino}methyl)-N-methyl-1,3-oxazole-4-carboxamide] and `COc1cc(C)c(S(=O)(=O)N(C)Cc2nc(C(=O)N(C)Cc3ccc(CN4CCC(O)C4)cc3)co2)c(C)c1` (stereo not shown) [Ex 178, N-{4-[(3-Hydroxypyrrolidin-1-yl)methyl]benzyl}-2-({[(4-methoxy-2,6-dimethylphenyl)sulfonyl](methyl)amino}methyl)-N-methyl-1,3-oxazole-4-carboxamide] cannot be ordered by IC50: less than 10 nM for the first, less than 10 nM for the second.

`COc1cc(C)c(S(=O)(=O)N(C)Cc2nc(C(=O)N(C)Cc3ccc(CN4CCC(OC)CC4)cc3)co2)c(C)c1` [Ex 167, 2-({[(4-Methoxy-2,6-dimethylphenyl)sulfonyl](methyl)amino}methyl)-N-{4-[(4-methoxypiperidin-1-yl)methyl]benzyl}-N-methyl-1,3-oxazole-4-carboxamide] and `COc1cc(C)c(S(=O)(=O)N(C)Cc2nc(C(=O)N(C)Cc3ccc(CN4CCC(OC)C4)cc3)co2)c(C)c1` (stereo not shown) [Ex 169, 2-({[(4-Methoxy-2,6-dimethylphenyl)sulfonyl](methyl)amino}methyl)-N-{4-[(3-methoxypyrrolidin-1-yl)methyl]benzyl}-N-methyl-1,3-oxazole-4-carboxamide] cannot be ordered by IC50: less than 10 nM for the first, less than 10 nM for the second.

`COc1cc(C)c(S(=O)(=O)N(C)Cc2nc(C(=O)N(C)Cc3ccc(CN4CCCC(OC)C4)cc3)co2)c(C)c1` (stereo not shown) [Ex 168, 2-({[(4-Methoxy-2,6-dimethylphenyl)sulfonyl](methyl)amino}methyl)-N-{4-[(3-methoxypiperidin-1-yl)methyl]benzyl}-N-methyl-1,3-oxazole-4-carboxamide] and `COc1cc(C)c(S(=O)(=O)N(C)Cc2nc(C(=O)N(C)Cc3ccc(CN4CC(OC)C4)cc3)co2)c(C)c1` [Ex 173, N-{4-[(3-Methoxyazetidin-1-yl)methyl]benzyl}-2-({[(4-methoxy-2,6-dimethylphenyl)sulfonyl](methyl)amino}methyl)-N-methyl-1,3-oxazole-4-carboxamide] fall in the same range of IC50: 10 to 100 nM for the first, 10 to 100 nM for the second.

Compared with `COc1cc(C)c(S(=O)(=O)N(C)Cc2nc(C(=O)N(C)Cc3ccc(CN4CCC(NC(C)=O)C4)cc3)co2)c(C)c1` (stereo not shown) [Ex 170, N-(4-{[3-(Acetylamino)pyrrolidin-1-yl]methyl}benzyl)-2-({[(4-methoxy-2,6-dimethylphenyl)sulfonyl](methyl)amino}methyl)-N-methyl-1,3-oxazole-4-carboxamide], `COc1cc(C)c(S(=O)(=O)N(C)Cc2nc(C(=O)N(C)Cc3ccc(CN4CCC(C(=O)N(C)C)C4)cc3)co2)c(C)c1` (stereo not shown) [Ex 171, N-(4-{[3-(Dimethylcarbamoyl)pyrrolidin-1-yl]methyl}benzyl)-2-({[(4-methoxy-2,6-dimethylphenyl)sulfonyl](methyl)amino}methyl)-N-methyl-1,3-oxazole-4-carboxamide] is lower in IC50: 10 to 100 nM for the first, less than 10 nM for the second. The second is the more potent here.

First: COc1cc(C)c(S(=O)(=O)N(C)Cc2nc(C(=O)N(C)Cc3ccc(CN4CC(O)C4)cc3)co2)c(C)c1 [Ex 172, N-{4-[(3-Hydroxyazetidin-1-yl)methyl]benzyl}-2-({[(4-methoxy-2,6-dimethylphenyl)sulfonyl](methyl)amino}methyl)-N-methyl-1,3-oxazole-4-carboxamide]
Second: COc1cc(C)c(S(=O)(=O)N(C)Cc2nc(C(=O)N(C)Cc3ccc(CN4CCCC(O)C4)cc3)co2)c(C)c1 (stereo not shown) [Ex 179, N-{4-[(3-Hydroxypiperidin-1-yl)methyl]benzyl}-2-({[(4-methoxy-2,6-dimethylphenyl)sulfonyl](methyl)amino}methyl)-N-methyl-1,3-oxazole-4-carboxamide]
The IC50 of the first is higher: 10 to 100 nM for the first, less than 10 nM for the second. The second is the more potent here.

`COc1cc(C)c(S(=O)(=O)N(C)Cc2nc(C(=O)N3CCN(CCCN4CCCC4)CC3)co2)c(C)c1` [Ex 174, 4-Methoxy-N,2,6-trimethyl-N-[(4-{[4-(3-pyrrolidin-1-ylpropyl)piperazin-1-yl]carbonyl}-1,3-oxazol-2-yl)methyl]benzenesulfonamide] and `COc1cc(C)c(S(=O)(=O)N(C)Cc2nc(C(=O)N3CCN(CC4CCN(C)CC4)CC3)co2)c(C)c1` [Ex 175, 4-Methoxy-N,2,6-trimethyl-N-{[4-({4-[(1-methylpiperidin-4-yl)methyl]piperazin-1-yl}carbonyl)-1,3-oxazol-2-yl]methyl}benzenesulfonamide] cannot be ordered by IC50: less than 10 nM for the first, less than 10 nM for the second.

`COc1cc(C)c(S(=O)(=O)N(Cc2nc(C(=O)N(C)Cc3ccc(CN4CCC(O)C4)cc3)co2)C2CC2)c(C)c1` (stereo not shown) [Ex 176, 2-({Cyclopropyl[(4-methoxy-2,6-dimethylphenyl)sulfonyl]amino}methyl)-N-{4-[(3-hydroxypyrrolidin-1-yl)methyl]benzyl}-N-methyl-1,3-oxazole-4-carboxamide] and `COc1cc(C)c(S(=O)(=O)N(Cc2nc(C(=O)N(C)Cc3ccc(CN4CCCC(O)C4)cc3)co2)C2CC2)c(C)c1` (stereo not shown) [Ex 180, 2-({Cyclopropyl[(4-methoxy-2,6-dimethylphenyl)sulfonyl]amino}methyl)-N-{4-[(3-hydroxypiperidin-1-yl)methyl]benzyl}-N-methyl-1,3-oxazole-4-carboxamide] cannot be ordered by IC50: less than 10 nM for the first, less than 10 nM for the second.

First: COc1cc(C)c(S(=O)(=O)N(C)Cc2nc(C(=O)N(C)Cc3ccc(CN4CCC(N(C)C)C4)cc3)co2)c(C)c1 (stereo not shown) [Ex 177, N-(4-{[3-(Dimethylamino)pyrrolidin-1-yl]methyl}benzyl)-2-({[(4-methoxy-2,6-dimethylphenyl)sulfonyl](methyl)amino}methyl)-N-methyl-1,3-oxazole-4-carboxamide]
Second: COc1cc(C)c(S(=O)(=O)N(Cc2nc(C(=O)N(C)Cc3ccc(CN4CCC(OC)C4)cc3)co2)C2CC2)c(C)c1 (stereo not shown) [Ex 182, 2-({Cyclopropyl[(4-methoxy-2,6-dimethylphenyl)sulfonyl]amino}methyl)-N-{4-[(3-methoxypyrrolidin-1-yl)methyl]benzyl}-N-methyl-1,3-oxazole-4-carboxamide]
The IC50 of the first is higher: 10 to 100 nM for the first, less than 10 nM for the second.

`COc1cc(C)c(S(=O)(=O)N(Cc2nc(C(=O)N(C)Cc3ccc(CN4CCC(O)CC4)cc3)co2)C2CC2)c(C)c1` [Ex 181, 2-({Cyclopropyl[(4-methoxy-2,6-dimethylphenyl)sulfonyl]amino}methyl)-N-{4-[(4-hydroxypiperidin-1-yl)methyl]benzyl}-N-methyl-1,3-oxazole-4-carboxamide] and `COc1cc(C)c(S(=O)(=O)N(Cc2nc(C(=O)N(C)Cc3ccc(CN4CCC(OC)CC4)cc3)co2)C2CC2)c(C)c1` [Ex 183, 2-({Cyclopropyl[(4-methoxy-2,6-dimethylphenyl)sulfonyl]amino}methyl)-N-{4-[(4-methoxypiperidin-1-yl)methyl]benzyl}-N-methyl-1,3-oxazole-4-carboxamide] cannot be ordered by IC50: less than 10 nM for the first, less than 10 nM for the second.

In the case of `COc1cc(C)c(S(=O)(=O)N(Cc2nc(C(=O)N(C)Cc3ccc(CN4CCCC(OC)C4)cc3)co2)C2CC2)c(C)c1` (stereo not shown) [Ex 184, 2-({Cyclopropyl[(4-methoxy-2,6-dimethylphenyl)sulfonyl]amino}methyl)-N-{4-[(3-methoxypiperidin-1-yl)methyl]benzyl}-N-methyl-1,3-oxazole-4-carboxamide], the IC50 is reported as less than 10 nM.
